# Source: patent US20190375708A1 (VenatoRx Pharmaceuticals, Inc., priority 2018, published 2019)
# pEC50: −log10 of the molar value.
# Experiments:
# [1] = In vitro cytotoxicity assay (MTT cell viability) in HepG2 cells; type: cell-based, human; conditions: human
# Outline: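 HepG2 cells incubated 7 days at 37 °C, 5% CO2 with compounds from 30 μM to 1.0 nM (8 half-log dilutions). Viability read as MTT formazan absorbance at 492 nm, normalised to vehicle controls; CC50 from 4-parameter non-linear regression.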
# [2] = test system: HBV replication in HepAD38 cells; test: Anti-HBV replication assay in HepAD38 cells (QPCR of extracellular HBV DNA); type: cell-based, HBV (genotype D, serotype ayw); conditions: Hepatitis B virus, 168 h, 7 days incubation, extracellular HBV DNA by QPCR, read-out: Anti-HBV EC50
# Outline: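 Compounds (1 log10 serial dilutions, […]) were left 7 days on tetracycline-free HepAD38 cultures, a HepG2 line with tet-controlled HBV genotype D. EC50 came from 4-parameter regression of percent inhibition versus vehicle, using supernatant HBV DNA copies/mL measured by QPCR.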
SMILES,CC50 at 7 days [1],pEC50 [2]
"Cc1c(C(=O)Nc2ccnc(Cl)c2)c(C)n(C)c1C(=O)C(=O)NC1(C)CCOCC1 [Example 326, N-(2-chloropyridin-4-yl)-1,2,4-trimethyl-5-(2-((4-methyltetrahydro-2H-pyran-4-yl)amino)-2-oxoacetyl)-1H-pyrrole-3-carboxamide]",> 30000 nM,> 7.30
Cc1cnc(NC(=O)c2c(C)c(C(=O)C(=O)NC3(CO)CCC3)n3c2CCCC3)s1 [Example 750],> 30000 nM,6.30 to 7.30
"Cc1cnc(C(C)(C)NC(=O)C(=O)c2cc(C(=O)Nc3ccc(F)c(C)c3)c3n2CCCC3)s1 [Example 413, N-(4-fluoro-3-methylphenyl)-3-(2-((2-(5-methylthiazol-2-yl)propan-2-yl)amino)-2-oxoacetyl)-5,6,7,8-tetrahydroindolizine-1-carboxamide]",> 30000 nM,6.30 to 7.30
"Cc1c(C(=O)Nc2ccc(F)c(F)c2)c(C)n(C)c1C(=O)C(=O)NC(C)(C)CO [Example 148, N-(3,4-difluorophenyl)-5-(2-((1-hydroxy-2-methylpropan-2-yl)amino)-2-oxoacetyl)-1,2,4-trimethyl-1H-pyrrole-3-carboxamide]",> 30000 nM,> 7.30
"Cc1c(C(=O)Nc2cc(F)c(F)c(F)c2)c(C)n(C)c1C(=O)C(=O)Nc1ccc(F)cn1 [Example 319, 5-(2-((5-fluoropyridin-2-yl)amino)-2-oxoacetyl)-1,2,4-trimethyl-N-(3,4,5-trifluorophenyl)-1H-pyrrole-3-carboxamide]",5000 to 30000 nM,> 7.30
"C#CCO[C@H]1CC[C@@H](NC(=O)C(=O)c2c(C)c(C(=O)Nc3ccc(F)c(C)c3)c(C)n2C)CC1 [Example 629, N-(4-fluoro-3-methylphenyl)-1,2,4-trimethyl-5-(2-oxo-2-(((1s,4s)-4-(prop-2-yn-1-yloxy)cyclohexxyl)amino)acetyl)-1H-pyrrole-3-carboxamide]",> 30000 nM,> 7.30
"Cc1c(C(=O)Nc2ccc(F)c(F)c2)c(C)n(C)c1C(=O)C(=O)NC1(CO)CCCCC1 [Example 616, N-(3,4-difluorophenyl)-5-(2-((1-(hydroxymethyl)cyclohexyl)amino)-2-oxoacetyl)-1,2,4-trimethyl-1H-pyrrole-3-carboxamide]",> 30000 nM,> 7.30
"Cc1cc(NC(=O)c2c(C)c(C(=O)C(=O)Nc3ccc(F)nc3)n(C)c2C)ccc1F [Example 212, N-(4-fluoro-3-methylphenyl)-5-(2-((6-fluoropyridin-3-yl)amino)-2-oxoacetyl)-1,2,4-trimethyl-1H-pyrrole-3-carboxamide]",5000 to 30000 nM,> 7.30
"Cc1c(C(=O)Nc2ccc(F)c(Cl)c2)c(C)n(C)c1C(=O)C(=O)Nc1ccccn1 [Example 309, N-(3-chloro-4-fluorophenyl)-1,2,4-trimethyl-5-(2-oxo-2-(pyridin-2-ylamino)acetyl)-1H-pyrrole-3-carboxamide]",> 30000 nM,6.30 to 7.30
"Cc1c(C(=O)Nc2ncc(C(F)(F)F)s2)c2n(c1C(=O)C(=O)NC1(CO)CCC1)CCCC2 [Example 749, 3-(2-((1-(hydroxymethyl)cyclobutyl)amino)-2-oxoacetyl)-2-methyl-N-(5-(trifluoromethyl)thiazol-2-yl)-5,6,7,8-tetrahydroindolizine-1-carboxamide]",> 30000 nM,6.30 to 7.30
"Cc1c(C(=O)Nc2ccc(F)c(F)c2)c2n(c1C(=O)C(=O)NCC(C)(C)O)CCCC2 [Example 462, N-(3,4-difluorophenyl)-3-(2-((2-hydroxy-2-methylpropyl)amino)-2-oxoacetyl)-2-methyl-5,6,7,8-tetrahydroindolizine--1 carboxamide]",> 30000 nM,6.30 to 7.30
"Cc1cc(NC(=O)c2c(C)c(C(=O)C(=O)NC3(c4nc(-c5ccncc5)no4)CCCCC3)n(C)c2C)ccc1F [Example 630, N-(4-fluoro-3-methylphenyl)-1,2,4-trimethyl-5-(2-oxo-2-((1-(3-(pyridin-4-yl)-1,2,4-oxadiazol-5-yl)cyclohexyl)amino)acetyl)-1H-pyrrole-3-carboxamide]",> 30000 nM,> 7.30
"Cc1cc(NC(=O)c2c(C)c(C(=O)C(=O)NCCc3cccs3)n(C)c2C)ccc1F [Example 347, N-(4-fluoro-3-methylphenyl)-1,2,4-trimethyl-5-(2-oxo-2-((2-(thiophen-2-yl)ethyl)amino)acetyl)-1H-pyrrole-3-carboxamide]",> 30000 nM,> 7.30
"Cc1cc(NC(=O)c2c(C)c(C(=O)C(=O)N[C@@]3(C)CC[C@H](O)C3)n(C)c2C)ccc1F [Example 723, N-(4-fluoro-3-methylphenyl)-5-(2-(((1 S,3S)-3-hydroxy-1-methylcyclopentyl)amino)-2-oxoacetyl)-1,2,4-trimethyl-1H-pyrrole-3-carboxamide]",> 30000 nM,> 7.30
"COC(=O)[C@@H](NC(=O)C(=O)c1c(C)c(C(=O)Nc2ccc(F)c(C)c2)c(C)n1C)C1CCCCC1 [Example 55, methyl (S)-2-cyclohexyl-2-(2-(4-((4-fluoro-3-methylphenyl)carbamoyl)-1,3,5-trimethyl-1H-pyrrol-2-yl)-2-oxoacetamido)acetate]",500 to 4990 nM,6.00 to 6.30
"Cc1c(C(=O)Nc2cccc(Cl)c2)c(C)n(C)c1C(=O)C(=O)NC1(C(F)(F)F)CCOCC1 [Example 604, N-(3-chlorophenyl)-1,2,4-trimethyl-5-(3-oxo-2-((4-(trifluoromethyl)tetrahydro-2H-pyran-4-yl)amino)acetyl)-1H-pyrrole-3-carboxamide]",5000 to 30000 nM,> 7.30
"Cc1noc([C@H](C)NC(=O)C(=O)c2c(Cl)c(C(=O)Nc3cnc(F)c(C)c3)c3n2CCCC3)n1 [Example 521, (S)-2-chloro-N-(6-fluoro-5-methylpyridin-3-yl)-3-(2-((1-(3-methyl-1,2,4-oxadiazol-5-yl)ethyl)amino)-2-oxoacetyl)-5,6,7,8-tetrahydroindolizine-1-carboxamide]",> 30000 nM,< 6.00
"Cc1c(C(=O)Nc2ccc(F)cc2)c(C)n(C)c1C(=O)C(=O)N[C@H](C)C(F)(F)F [Example 725, (R)-N-(4-fluorophenyl)-1,2,4-trimethyl-5-(2-oxo-2-((1,1,1-trifluoropropan-2-yl)amino)acetyl)-1H-pyrrole-3-carboxamide]",> 30000 nM,> 7.30
"Cc1c(C(=O)Nc2cccc(Cl)c2)c(C)n(C)c1C(=O)C(=O)NC(C)(C)CO [Example 600, N-(3-chlorophenyl)-5-(2-((1-hydroxy-2-methylpropan-2-yl)amino)-2-oxoacetyl)-1,2,4-trimethyl-1H-pyrrole-3-carboxamide]",> 30000 nM,> 7.30
"Cc1cc(NC(=O)c2cc(C(=O)C(=O)N[C@@H](C)C(F)(F)F)n3c2CCCC3)ccc1F [Example 407, (S)-N-(4-fluoro-3-methylphenyl)-3-(2-oxo-2-((1,1,1-trifluoropropan-2-yl)amino)acetyl)-5,6,7,78-tetrahydroindolizine-1-carboxamide]",> 30000 nM,6.30 to 7.30
"CC(C)(CO)CNC(=O)C(=O)c1c(Cl)c(C(=O)Nc2ccc(F)c(F)c2)c2n1CCCC2 [Example 528, 2-chloro-N-(3,4-difluorophenyl)-3-(2-((3-hydroxy-2,2-dimethylpropyl)amino)-2-oxoacetyl)-5,6,7,8-tetrahydroindolizine-1-carboxamide]",500 to 4990 nM,6.00 to 6.30
"Cc1cc(NC(=O)c2c(C)c(C(=O)C(=O)N[C@H]3CC[C@@H](O)CC3)n(C)c2C)ccc1F [Example 137, N-(4-fluoro-3-methylphenyl)-5-(2-(((1s,4s)-4-hydroxycyclohexyl)amino)-2-oxoacetyl)-1,2,4-trimethyl-1H-pyrrole-3-carboxamide]",> 30000 nM,> 7.30
"Cc1cc(NC(=O)c2c(C)c(C(=O)C(=O)N[C@H]3C[C@@H](NS(C)(=O)=O)C3)n(C)c2C)ccc1F [Example 669, N-(4-fluoro-3-methylphenyl)-1,2,4-trimethyl-5-(2-(((1s,3s)-3-(methylsulfonamido)cyclobutyl)amino)-2-oxoacetyl)-1H-pyrrole-3-carboxamide]",> 30000 nM,> 7.30
"Cc1cc(NC(=O)c2c(C)c(C(=O)C(=O)NC3C(=O)NCC3(C)C)n(C)c2C)ccc1F (stereo not drawn) [Example 679, 5-(2-((4,4-dimethyl-2-oxopyrrolidin-3-yl)amino)-2-oxoacetyl)-N-(4-fluoro-3-methylphenyl)-1,2,4-trimethyl-1H-pyrrole-3-carboxamide]",> 30000 nM,> 7.30
"CCOC(=O)[C@H](CO)NC(=O)C(=O)c1c(C)c(C(=O)Nc2ccc(F)c(C)c2)c(C)n1C [Example 25, ethyl (2-(4-((4-fluoro-3-methylphenyl)carbamoyl)-1,3,5-trimethyl-1H-pyrrol-2-yl)-2-oxoacetyl)-L-serinate]",> 30000 nM,6.30 to 7.30
"COCC1(CNC(=O)C(=O)c2c(C)c(C(=O)Nc3ccc(F)c(C)c3)c(C)n2C)CCCCC1 [Example 358, N-(4-fluoro-3-methylphenyl)-5-(2-(((1-(methoxymethyl)cyclohexyl)methyl)amino)-2-oxoacetyl)-1,2,4-trimethyl-1H-pyrrole-3-carboxamide]",> 30000 nM,> 7.30
"Cc1cc(NC(=O)c2c(C)c(C(=O)C(=O)NC3CC(=O)Nc4ccccc43)n(C)c2C)ccc1F (stereo not drawn) [Example 626, N-(4-fluoro-3-methylphenyl)-1,2,4-trimethyl-5-(2-oxo-2-((2-oxo-1,2,3,4-tetrahdyroquinolin-4-yl)amino)acetyl)-1H-pyrrole-3-carboxamide]",> 30000 nM,> 7.30
